How the values were obtained:
[1] = system: Glomerella lagenarium (Colletotrichum lagenarium); test: Fungicidal activity against Glomerella lagenarium (Colletotrichum lagenarium) liquid culture / cucumber / preventative (anthracnose); type: cell-based; settings: Colletotrichum orbiculare; 20 ppm in the applied formulation; liquid culture (PDB), growth inhibition measured photometrically after 3 to 4 days; compared to untreated control; read-out: disease control
Procedure, shortened: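 Percent activity against the untreated check was derived from photometric growth measurements made 2 to 7 days after conidia in potato dextrose broth were combined with compound at 20 ppm. Cultures were kept dark at 24 °C and 96% humidity.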

[2] = system: Puccinia recondita f. Sp. Tritici; test: Fungicidal activity against Puccinia recondita f. sp. tritici / wheat / leaf disc preventative (brown rust); type: in vivo; settings: foliar, 200 ppm in the applied formulation, wheat leaf segments, preventative, compared to untreated control leaf disks, read-out: disease control
Procedure, shortened: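 Percent disease control relative to untreated check segments is scored once disease develops, 7 to 9 days after application. Wheat cv. Kanzler segments receive compound spray (200 ppm in formulation) one day before spore inoculation, then sit at 19° C. and 75% rh under 12 h light/12 h dark.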

[3] = system: Puccinia recondita f. Sp. Tritici; test: Fungicidal activity against Puccinia recondita f. sp. tritici / wheat / leaf disc curative (brown rust); type: in vivo; settings: foliar, 24 h, 200 ppm in the applied formulation, wheat leaf segments, curative (applied 1 day after inoculation), compared to untreated control leaf disks, read-out: disease control
Procedure, shortened: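 Curative test on wheat leaf segments (cv. Kanzler) on agar, inoculated with spore suspension and held dark at 19° C, 75% RH; formulated compound in water applied 1 day after inoculation. Incubated at 19° C, 75% RH, 12 h light/12 h dark; percent disease control versus untreated scored 6 to 8 days after application.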

Phakopsora Pachyrhizi = test: Fungicidal activity against Phakopsora pachyrhizi / soybean / leaf disc preventative (Asian soybean rust); type: in vivo; settings: foliar, 200 ppm in the applied formulation, soybean leaf disks, compared to untreated control leaf disks, read-out: disease control
Procedure, shortened: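 Scored 12 to 14 days post-application as percent control relative to untreated check discs, rust spores were sprayed under the disc one day after compound treatment. Incubation: 20°C, 75% rh, first 24–36 h in darkness, then 12 h daily light; discs kept on water agar.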

CON(Cc1ccc(-c2noc(C(F)(F)F)n2)cc1)C(=O)CC(F)(F)F [Compound 1.36, 3,3,3-trifluoro-N-methoxy-N-[[4-[5-(trifluoromethyl)-1,2,4-oxadiazol-3-yl]phenyl]methyl]-propanamide]
≥ 80%: inhibition of growth at 20 ppm [1] | pest or weed control at 200 ppm [2] | pest or weed control at 200 ppm [3] | pest or weed control at 200 ppm (Phakopsora Pachyrhizi)

CON(Cc1ccc(-c2noc(C(F)(F)F)n2)cc1)C(=O)CC1CC1(F)F (stereo not shown) [Compound 1.64, 2-(2.2-difluorocyclopropyl)-N-methoxy-N-[[4-[5-(trifluoromethyl)-1,2,4-oxadiazol-3-yl]phenyl]methyl]-acetamide]
≥ 80%: inhibition of growth at 20 ppm [1] | pest or weed control at 200 ppm [2] | pest or weed control at 200 ppm [3] | pest or weed control at 200 ppm (Phakopsora Pachyrhizi)

CC1(C(=O)N(Cc2ccc(-c3noc(C(F)(F)F)n3)cc2)C2COC2)CC1 [Compound 1.743, 1-methyl-N-(oxetan-3-yl)-N-[[4-[5-(trifluoromethyl)-1,2,4-oxadiazol-3-yl]phenyl]methyl]-cyclopropane-carboxamide]
≥ 80%: inhibition of growth at 20 ppm [1] | pest or weed control at 200 ppm [2] | pest or weed control at 200 ppm [3] | pest or weed control at 200 ppm (Phakopsora Pachyrhizi)

CON(Cc1ccc(-c2noc(C(F)(F)F)n2)cc1)C(=O)C1(C)COC1 [Compound 1.50, N-methoxy-3-methyl-N-[[4-[5-(trifluoromethyl)-1,2,4-oxadiazol-3-yl]phenyl]methyl]-oxetane-3-carboxamide]
≥ 80%: inhibition of growth at 20 ppm [1] | pest or weed control at 200 ppm [2] | pest or weed control at 200 ppm [3] | pest or weed control at 200 ppm (Phakopsora Pachyrhizi)

O=C(ON(Cc1ccc(-c2noc(C(F)(F)F)n2)cc1)C(=O)C1CC1)C1CC1 [Compound 1.608, [cyclopropanecarbonyl-[[4-[5-(trifluoromethyl)-1,2,4-oxadiazol-3-yl]phenyl]methyl]-amino]-cyclopropane-carboxylate]
≥ 80%: inhibition of growth at 20 ppm [1] | pest or weed control at 200 ppm [2] | pest or weed control at 200 ppm [3] | pest or weed control at 200 ppm (Phakopsora Pachyrhizi)

C=CCN(Cc1ccc(-c2noc(C(F)(F)F)n2)cc1)C(=O)C1CC1F (stereo not shown) [Compound 1.491, N-allyl-2-fluoro-N-[[4-[5-(trifluoromethyl)-1,2,4-oxadiazol-3-yl]phenyl]methyl]-cyclopropane-carboxamide]
≥ 80%: inhibition of growth at 20 ppm [1] | pest or weed control at 200 ppm [2] | pest or weed control at 200 ppm [3] | pest or weed control at 200 ppm (Phakopsora Pachyrhizi)

CON(Cc1ccc(-c2noc(C(F)(F)F)n2)cc1)C(=O)NC(C)(C)C [Compound 3.19, 3-tert-butyl-1-methoxy-1-[[4-[5-(trifluoromethyl)-1,2,4-oxadiazol-3-yl]phenyl]methyl]urea]
≥ 80%: inhibition of growth at 20 ppm [1] | pest or weed control at 200 ppm [2] | pest or weed control at 200 ppm [3] | pest or weed control at 200 ppm (Phakopsora Pachyrhizi)

CCC(C)C(=O)N(Cc1ccc(-c2noc(C(F)(F)F)n2)cc1)Cc1ccco1 (stereo not shown) [Compound 1.466]
≥ 80%: inhibition of growth at 20 ppm [1] | pest or weed control at 200 ppm [2] | pest or weed control at 200 ppm [3] | pest or weed control at 200 ppm (Phakopsora Pachyrhizi)

COCCC(=O)N(Cc1ccc(-c2noc(C(F)(F)F)n2)cc1)C1COC1 [Compound 1.741, 3-methoxy-N-(oxetan-3-yl)-N-[[4-[5-(trifluoromethyl)-1,2,4-oxadiazol-3-yl]phenyl]methyl]-propanamide]
≥ 80%: inhibition of growth at 20 ppm [1] | pest or weed control at 200 ppm [2] | pest or weed control at 200 ppm [3] | pest or weed control at 200 ppm (Phakopsora Pachyrhizi)

CCC(C)C(=O)N(O)Cc1ccc(-c2noc(C(F)(F)F)n2)cc1 (stereo not shown) [Compound 1.765, N-hydroxy-2-methyl-N-[[4-[5-(trifluoromethyl)-1,2,4-oxadiazol-3-yl]phenyl]methyl]-butanamide]
≥ 80%: inhibition of growth at 20 ppm [1] | pest or weed control at 200 ppm [2] | pest or weed control at 200 ppm [3] | pest or weed control at 200 ppm (Phakopsora Pachyrhizi)

CON(Cc1ccc(-c2noc(C(F)(F)F)n2)cc1)C(=O)C1(C)CC1 [Compound 1.43, N-methoxy-1-methyl-N-[[4-[5-(trifluoromethyl)-1,2,4-oxadiazol-3-yl]phenyl]methyl]-cyclopropane-carboxamide]
≥ 80%: inhibition of growth at 20 ppm [1] | pest or weed control at 200 ppm [2] | pest or weed control at 200 ppm [3] | pest or weed control at 200 ppm (Phakopsora Pachyrhizi)

COCCN(Cc1ccc(-c2noc(C(F)(F)F)n2)cc1)C(=O)C1CC1 [Compound 1.363, N-(2-methoxyethyl)-N-[[4-[5-(trifluoromethyl)-1,2,4-oxadiazol-3-yl]phenyl]methyl]-cyclopropane-carboxamide]
≥ 80%: inhibition of growth at 20 ppm [1] | pest or weed control at 200 ppm [2] | pest or weed control at 200 ppm [3] | pest or weed control at 200 ppm (Phakopsora Pachyrhizi)

CON(Cc1ccc(-c2noc(C(F)(F)F)n2)c(F)c1F)C(=O)C1CCCO1 (stereo not shown) [Compound 1.577, N-[[2,3-difluoro-4-[5-(trifluoromethyl)-1,2,4-oxadiazol-3-yl]phenyl]methyl]-N-methoxy-tetrahydrofuran-2-carboxamide]
≥ 80%: inhibition of growth at 20 ppm [1] | pest or weed control at 200 ppm [2] | pest or weed control at 200 ppm [3] | pest or weed control at 200 ppm (Phakopsora Pachyrhizi)

CON(Cc1ccc(-c2noc(C(F)(F)F)n2)c(F)c1F)C(=O)C1CC1 [Compound 1.584, N-[[2,3-difluoro-4-[5-(trifluoromethyl)-1,2,4-oxadiazol-3-yl]phenyl]methyl]-N-methoxy-cyclopropane-carboxamide]
≥ 80%: inhibition of growth at 20 ppm [1] | pest or weed control at 200 ppm [2] | pest or weed control at 200 ppm [3] | pest or weed control at 200 ppm (Phakopsora Pachyrhizi)

CCCN(Cc1ccc(-c2noc(C(F)(F)F)n2)cc1)C(=O)C1CCC1 [Compound 1.656, N-propyl-N-[[4-[5-(trifluoromethyl)-1,2,4-oxadiazol-3-yl]phenyl]methyl]-cyclobutane-carboxamide]
≥ 80%: inhibition of growth at 20 ppm [1] | pest or weed control at 200 ppm [2] | pest or weed control at 200 ppm [3] | pest or weed control at 200 ppm (Phakopsora Pachyrhizi)

CC1(C(=O)N(CCO)Cc2ccc(-c3noc(C(F)(F)F)n3)cc2)CC1 [Compound 1.718, N-(2-hydroxyethyl)-1-methyl-N-[[4-[5-(trifiuoromethyl)-1,2,4-oxadiazol-3-yl]phenyl]methyl]-cyctopropane-carboxamide]
≥ 80%: inhibition of growth at 20 ppm [1] | pest or weed control at 200 ppm [2] | pest or weed control at 200 ppm [3] | pest or weed control at 200 ppm (Phakopsora Pachyrhizi)

CC(C)N(Cc1ccc(-c2noc(C(F)(F)F)n2)cc1)C(=O)C1CCCO1 (stereo not shown) [Compound 1.682, N-isopropyl-N-[[4-[5-(trifluoromethyl)-1,2,4-oxadiazol-3-yl]phenyl]methyl]-tetrahydrofuran-2-carboxamide]
≥ 80%: inhibition of growth at 20 ppm [1] | pest or weed control at 200 ppm [2] | pest or weed control at 200 ppm [3] | pest or weed control at 200 ppm (Phakopsora Pachyrhizi)

CCC(C)C(=O)N(Cc1ccc(-c2noc(C(F)(F)F)n2)cc1)C1CC1 (stereo not shown) [Compound 1.126, N-cyclopropyl-2-methyl-N-[[4-[5-(trifluoromethyl)-1,2,4-oxadiazol-3-yl]phenyl]methyl]-butanamide]
≥ 80%: inhibition of growth at 20 ppm [1] | pest or weed control at 200 ppm [2] | pest or weed control at 200 ppm [3] | pest or weed control at 200 ppm (Phakopsora Pachyrhizi)

CCC(C)NC(=O)N(Cc1ccc(-c2noc(C(F)(F)F)n2)cc1)OC (stereo not shown) [Compound 3.9, 1-methoxy-3-sec-butyl-1-[[4-[5-(trifluoromethyl)-1,2,4-oxadiazol-3-yl]phenyl]methyl]urea]
≥ 80%: inhibition of growth at 20 ppm [1] | pest or weed control at 200 ppm [2] | pest or weed control at 200 ppm [3] | pest or weed control at 200 ppm (Phakopsora Pachyrhizi)

— patent US11180462B2, “Microbiocidal oxadiazole derivatives” (SYNGENTA PARTICIPATIONS AG, priority 2015, dated 2021)
